Measurements as given in PMC6006285, “Specific stereochemistry of OP-1074 disrupts estrogen receptor alpha helix 12 and confers pure antiestrogenic activity” (Nature Communications, 2018).
pIC50: −log10 of the molar value.

What was measured:
[1] = test system: E2-stimulated AP activity in Ishikawa cells; assay: Alkaline phosphatase (AP) assay, antagonist mode (presence of 500 pM E2); type: cell-based, human
Description: (§1) Our primary screen to distinguish pure antiestrogens from SERMs was induction of alkaline phosphatase (AP) activity in Ishikawa uterine cells. […] The reference SERM used in our screen was endoxifen (N-desmethyl-4-hydroxytamoxifen), the most abundant bioactive metabolite of tamoxifen.
(§2) Shown is a representative figure analyzed and presented as above.
(§3) At least 4 h later cells were treated with antiestrogens and media was diluted to 2.5% stripped FBS. Cells were incubated for 3 days, media removed and plates frozen at −80 °C. Thawed plates were incubated with a chromogenic substrate of AP, p-nitrophenyl phosphate (ThermoFisher Scientific, #36721), for 40–60 min at 40 °C, and absorbance read at 405 nm on the Varioskan Lux multimodal plate reader (ThermoFisher Scientific, #VLBL00D0).

[2] = test system: AP activity in Ishikawa uterine cells; assay: Alkaline phosphatase (AP) assay, agonist mode (absence of E2); type: cell-based, human
Description: as §1, §2, §3

## CC1=C(c2ccc(O)cc2)[C@H](c2ccc(OCCN3CC[C@@H](C)C3)cc2)Oc2cc(O)ccc21 [OP-1074]
[1]; Homo sapiens, Ishikawa, 72 h, read-out: IC50 inhibition of E2-stimulated AP activity
  pIC50: 7.70
[1]; Ishikawa cells, 500 pM E2
  Antagonism of E2-stimulated AP activity: completely antagonized E2
[2]; 3 days, absence of E2, normalized to 500 pM E2, representative experiment (Fig. 2a)
  Maximal AP activity in agonist mode relative to E2 control: 8%
[2]; Maximum AP activity observed relative to positive control, 500 pM E2, means of n independent experiments ±s.d.
  Induction of AP activity (% E2): 10% ± 4.4 (n = 29) % E2
